Assay results taken from ChEMBL document CHEMBL3124825, “Benzimidazole: an emerging scaffold for analgesic and anti-inflammatory agents” (Eur J Med Chem, 2014).

How the values were obtained:
Cannabinoid receptor 2 = Cannabinoid receptor 2 (Homo sapiens, UniProt P34972); test: Agonist activity at human CB2 receptor
Cannabinoid receptor 1 = Cannabinoid receptor 1 (Homo sapiens, UniProt P21554); test: Agonist activity at human CB1 receptor
Homo sapiens = species on record: Homo sapiens; test: Selectivity ratio of Ki for human CB1 receptor to Ki for human CB2 receptor

Sequence of Cannabinoid receptor 2 (P34972 whole entry): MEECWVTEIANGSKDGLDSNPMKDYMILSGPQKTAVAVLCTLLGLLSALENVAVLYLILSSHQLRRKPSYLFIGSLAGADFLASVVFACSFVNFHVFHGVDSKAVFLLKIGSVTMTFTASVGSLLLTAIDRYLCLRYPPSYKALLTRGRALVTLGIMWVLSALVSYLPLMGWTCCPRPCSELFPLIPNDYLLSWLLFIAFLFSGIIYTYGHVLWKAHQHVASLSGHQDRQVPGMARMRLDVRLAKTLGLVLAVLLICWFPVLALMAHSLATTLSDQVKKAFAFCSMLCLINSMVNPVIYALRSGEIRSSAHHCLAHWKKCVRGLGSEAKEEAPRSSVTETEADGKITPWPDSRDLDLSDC
Sequence of Cannabinoid receptor 1 (P21554 whole entry): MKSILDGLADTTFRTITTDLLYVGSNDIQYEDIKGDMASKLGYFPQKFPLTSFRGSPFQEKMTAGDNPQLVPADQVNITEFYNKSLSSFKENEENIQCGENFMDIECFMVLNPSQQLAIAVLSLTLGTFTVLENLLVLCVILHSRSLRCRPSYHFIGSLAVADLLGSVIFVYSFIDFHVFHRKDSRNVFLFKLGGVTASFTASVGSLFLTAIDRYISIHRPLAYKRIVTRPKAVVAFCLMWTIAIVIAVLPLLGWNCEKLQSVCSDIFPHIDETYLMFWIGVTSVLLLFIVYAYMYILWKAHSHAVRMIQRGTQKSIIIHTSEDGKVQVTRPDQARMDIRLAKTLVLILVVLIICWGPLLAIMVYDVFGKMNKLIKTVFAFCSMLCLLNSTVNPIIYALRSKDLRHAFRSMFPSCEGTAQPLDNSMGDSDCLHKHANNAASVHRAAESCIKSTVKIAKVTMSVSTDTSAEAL

Ki (Cannabinoid receptor 2): 3.3 nM | Ki (Cannabinoid receptor 1): 3170 nM | Ratio Ki (Homo sapiens): 970
Compound: CCOc1ccc(Cc2nc3cc(C(=O)N(C)CC)ccc3n2CCC(C)C)cc1
